Measurements reported in patent US10702604B2, “Lipid nanocapsules comprising a retinoid, nanodispersion and composition containing the same, process for preparing the same and use thereof in dermatology” (GALDERMA RESEARCH & DEVELOPMENT, priority 2012, dated 2020).

How the values were obtained:
[1] = Maximum solubility of compound A in various oily phases; assay type: physicochemical
[2] = Chemical stability of compound A in oily phases (HPLC-UV); assay type: physicochemical
Description: The stability of the active agent was evaluated by liquid chromatography coupled to a UV detector (HPLC-UV).

[3] = Chemical stability of compound A in gel compositions (HPLC-UV assay); assay type: physicochemical; conditions: 4° C., room temperature and 40° C., up to 6 to 7 months
Description: Compositions 1 and 2 according to Example 3 were placed under various stability conditions: 4° C., room temperature and 40° C., and were monitored for 6 to 7 months. At each stability checkpoint, compound A was assayed by HPLC-UV.

ear of BALB/C mice = test: Tolerance study: pro-inflammatory effect after single application to the mouse ear (ear thickness); assay type: in vivo; conditions: single topical application, 0.01% in acetone, 20 μl
Description: The aim of the study is to evaluate the effect of a composition according to the invention on the pro-inflammatory activity associated with retinoids in general.
A single application of 20 μl of the test products was administered to the ear of the mice on day 1. Clinical observations and measurements of the mouse ear thickness, directly linked to inflammation, are performed from day 2 up to day 12.

[4] = in caprylic/capric acid triglycerides (Miglyol 812N)
[5] = in diisopropyl adipate (Crodamol DA)
[6] = in macrogol oleate (Labrafil M1944CS)
[7] = in propylene glycol dicaprylate/dicaprate (Myritol PC)
[8] = in propylene glycol monolaurate (Lauroglycol FCC)

Maximum solubility [1, 4]: 0.019 % m/m
Maximum solubility [1, 5]: 0.297 % m/m
Maximum solubility [1, 6]: 0.156 % m/m
Maximum solubility ([1]; in mineral oil): 0.0001 % m/m
Maximum solubility ([1]; in octyldodecanol (Eutanol G)): 0.137 % m/m
Maximum solubility [1, 7]: 0.069 % m/m
Maximum solubility ([1]; in propylene glycol monocaprylate (Capryol 90)): 0.802 % m/m
Maximum solubility [1, 8]: 0.296 % m/m
Maximum solubility ([1]; in sweet almond oil): 0.011 % m/m
Stability [2, 4]: 6 months RT/40 °C
Stability [2, 5]: 6 months RT/40 °C
Stability [2, 6]: 6 months RT/40 °C
Stability ([2]; in octyldodecanol (Eutanol G)): Unstable
Stability [2, 7]: Unstable
Stability ([2]; in propylene glycol monocaprylate (Capryol 90), RT = room temperature): 6 months RT/40 °C
Stability [2, 8]: 6 months RT/40 °C
Stability ([2]; in sweet almond oil): 6 months RT/40 °C
Chemical stability of compound A in the gel compositions [3]: chemically stable
Compound: CC(C)(C)c1cc(-c2cc(-c3ccc(C(=O)O)cc3)ccc2OCCO)ccc1N1CCCC1 [Compound A, 3″-tert-butyl-4′-(2-hydroxyethoxy)-4″-pyrrolidin-1-yl-[1,1′;3′,1″]-terphenyl-4-carboxylic acid]
Increase in the thickness of the mouse ear versus acetone alone (ear of BALB/C mice): 59%
